Active and inactive are the calls of the source. The calls are words filed in the database; no cut-off is given here.

In assay [1] the test system is MDA-MB-231. Kind of assay: Antiproliferative activity against human MDA-MB-231 cells assessed as inhibition of cell growth at >25 uM incubated for 24 hrs by MTT assay relative to control. To be noted: dose microM >25. The format is functional. In general terms: Tetrazolium dyes change colour on reduction, which living cells bring about.
Assay [2] relates to MDA-MB-231. Kind of assay: Antiproliferative activity against human MDA-MB-231 cells at >12.5 uM incubated for 48 hrs by MTT assay. Type of assay: functional, cell-based. To be noted: dose microM >12.5, time 48.0 hrs.
In assay [3] the test system is MDA-MB-231. The assay is described as follows: Antiproliferative activity against human MDA-MB-231 cells incubated for 24 hrs by MTT assay. The format is functional, cell-based. To be noted: MDA-MB-231, 24 h.
Assay [4] relates to MDA-MB-231. Kind of assay: Antiproliferative activity against human MDA-MB-231 cells incubated for 48 hrs by MTT assay. The format is functional, cell-based. To be noted: MDA-MB-231, 48 h.
The subject of assay [5] is MDA-MB-231. Kind of assay: Induction of apoptosis in human MDA-MB-231 cells assessed as early apoptotic cells at 12.5 uM incubated for 48 hrs by AnnexinV and 7AAD staining based flow cytometric analysis. The format is functional, cell-based. Background: In flow cytometry, cells or beads pass a laser one at a time.
In assay [6] the test system is MDA-MB-231. Kind of assay: Induction of cell cycle arrest in human MDA-MB-231 cells assessed as accumulation in S phase at 12.5 uM incubated for 48 hrs by PI staining based flow cytometric analysis (reference value: 19.35%). Type of assay: functional.
The test system of assay [7] is MDA-MB-231. Kind of assay: Induction of cell cycle arrest in human MDA-MB-231 cells assessed as accumulation in G0/G1 phase at 12.5 uM incubated for 48 hrs by PI staining based flow cytometric analysis (reference value: 51.75%). The format is functional.
Assay [8] relates to MDA-MB-231. The assay is described as follows: Induction of cell cycle arrest in human MDA-MB-231 cells assessed as accumulation in G2/M phase at 12.5 uM incubated for 48 hrs by PI staining based flow cytometric analysis (reference value: 19.7%). The format is functional.
Assay [9] deals with MDA-MB-231. Kind of assay: Induction of apoptosis in human MDA-MB-231 cells assessed as late apoptotic cells at 12.5 uM incubated for 48 hrs by AnnexinV and 7AAD staining based flow cytometric analysis. Type of assay: functional, cell-based.
The subject of assay [10] is 5637. The assay is described as follows: Antiproliferative activity against human 5637 cells assessed as inhibition of cell growth incubated for 24 hrs by MTT assay. Type of assay: functional, cell-based. To be noted: Homo sapiens, 5637, 24 h.
The test system of assay [11] is MCF7. The assay is described as follows: Antiproliferative activity against human MCF7 cells assessed as inhibition of cell growth. Type of assay: functional, cell-based.
Assay [12] has as its system MDA-MB-231. Kind of assay: Antiproliferative activity against human MDA-MB-231 cells at 6.25 to 100 uM incubated for 24 to 48 hrs by MTT assay. To be noted: dose microM 6.25-100, time hrs 24-48. Type of assay: functional, cell-based.

Usually IC50 stands for the concentration that gives 50% inhibition. In the case of `Cc1cn([C@H]2C[C@H](n3cc(CO)nn3)[C@@H](C[Te]c3ccccc3)O2)c(=O)[nH]c1=O`, the “inhibition (INH)” value in assay [1] is 50%. The outcome in assay [2] was Active. For the same molecule, the values for the IC50 in assay [3], in assay [4] and in assay [10] were 24.9 µM, 11.8 µM and 8.09 µM, respectively. In addition, the result in assay [5] and in [9] was inactive. The Activity worked out at 27.3% in assay [6], 40.55% in assay [7] and 16.9% in [8].

Consider `CNCCC(Oc1ccc(C(F)(F)F)cc1)c1ccccc1` (configuration not stated) [FLUOXETINE], for which, in assay [11], the half-inhibitory concentration (IC50) was found to be 0.01 µM.

As for `Cc1cn([C@H]2C[C@H](n3cc(CCCO)nn3)[C@@H](C[Te]c3ccccc3)O2)c(=O)[nH]c1=O`, in assay [1], the “inhibition (INH)” value is listed as 50%. For the same molecule, the outcome in assay [2] was Active. In addition, the IC50 worked out at 21.6 µM in assay [3], 9.62 µM in assay [4] and 1.99 µM in [10]. The outcome in [5] and in [9] was inactive. Further, the Activity in [6] came out at 28.2%; in assay [7], 44.9%; in assay [8], 19.95%.

`Cc1cn([C@H]2C[C@H](N=[N+]=[N-])[C@@H](CO)O2)c(=O)[nH]c1=O`: the result in assay [12] was inactive.

The values above are taken from ChEMBL document CHEMBL4665723, “Evaluation of the effect of synthetic compounds derived from azidothymidine on MDA-MB-231 type breast cancer cells” (Bioorg Med Chem Lett, 2020).
